Data published in US5068337A, “1,4-dihydropyridines and their ability to inhibit blood platelet aggregation, inhibit thromboxane synthetase and phospholipase” (John Wyeth & Brother Limited, priority 1984, dated 1991).

Legend:
isolated rat portal vein = assay: calcium antagonist activity: response of isolated rat portal vein to increasing calcium ion concentration in vitro; settings: read-out: molar concentration required to reduce the response by 50%
Text: In this-test a-molar concentration of 2×10^-7 M of 1,4-dihydro-2-(imidazol- 1-ylmethyl)-6-methyl 4-(3-nitrophenyl)pyridine-3, 5-dicarboxylic acid 3-ethyl 5-methyl ester was required to reduce the response by 50%.

[1] = tested on: spontaneously hypertensive rats; assay: antihypertensive activity in spontaneously hypertensive rats (tail cuff systolic pressure); format: in vivo, rat
Procedure: The compounds of formula I were tested for antihypertensive activity by the following standard procedure:
The blood pressures of male or female spontaneously hypertensive rats are measured in a 37° C constant temperature housing by means of a tail cuff. Rats with systolic pressures below 155 mmHg are discarded. Groups of rats are dosed orally with the test substance in a suitable vehicle or with vehicle alone. Systolic pressures are recorded before dosing and at selected time points afterwards. Heart rates are derived from caudal artery pulses. Results are analysed statistically by means of 2 way analysis of variance (within group).

thromboxane synthetase = assay: inhibition of thromboxane production (TxB2 radio-immunoassay, rabbit platelet rich plasma); format: cell-based; settings: Oryctolagus cuniculus, rabbit PRP, adenosine diphosphate and adrenalin, read-out: IC50 (50% inhibition of TxB2)
Procedure: The compounds of formula I were tested for their ability to inhibit thromboxane production by the following standard test:
a) Generation of thromboxanes
Blood (approx. 75 ml) is obtained from an anaesthetised rabbit and centrifuged at 200 g for 10 minutes to obtain platelet rich plasma (PRP). An aliquot of PRP is incubated for 10 minutes at 37° C. in the presence of vehicle or drug. Platelet aggregation is induced by the addition of adenosine diphosphate and adrenalin. The tubes are incubated for 3 minutes, centrifuged at 10,000 for 3 minutes and a […] aliquot of the supernatant taken for radio-immunoassay of thromboxane B2 (TxB2).
b) Radio-immunoassay of TxB2
The total incubation volume is 150μ containing 50μl of ^3 H - TxB2 (0.005 μCi), […] of sample or authentic TxB2 ranging from 5 to 300 pg per tube as standards and 50 μl of rabbit anti-sera to TxB2 (in a concentration which will bind 50% of H-TxB2) After incubation for 1 hour at room temperature the tubes are further incubated for 16-20 hours at 4° C. 1 ml of dextran-coated charcoal is then added to the tubes which are further incubated on ice for 10 minutes. Following the incubation the samples are centrifuged at 10,000 g for 10 minutes and […] of the supernatant added to 5 ml of scintillation cocktail. Measurement of the radioactivity in the supernatant quantifies the amount of [^3 H]-TxB2 bound by the antibody. The concentration of unlabelled TxB2 in the sample is then determined from a linear standard curve.
IC50 values represent the concentrations of drug which achieve 50% inhibition of TxB2.

[2] = tested on: blood platelet aggregation; assay: inhibition of blood platelet aggregation (arachidonic acid induced, rabbit platelet rich plasma); format: cell-based, rabbit (New Zealand White); settings: IC50 dazoxiben / IC50 test; 250 μM arachidonic acid, rabbit PRP
Procedure: Compounds of formula I were tested for their ability to inhibit blood platelet aggregation by a modification of the procedure of Fantl, Australian J.Exp.Biol- Med.Sci. 45, 355-62 1967.
Since platelet aggregation is the initial step in thrombus formation it -is considered that compounds which prevent aggregation or reduce platelet adhesiveness may inhibit the initiation of the atherosclerotic process. The effect of drugs on adhesiveness is measured in platelet-rich plasma containing a small amount of arachidonic acid which markedly increases aggregation in vitro and may be a physiological agent for doing so in vivo. The actual test procedure used in described below.
New Zealand White rabbits (2.5-3kg) are anaesthetised with an injection, via the marginal ear vein, of […]. The carotid artery is cannulated and blood (100-150 ml) is withdrawn into 50 ml syringes containing 3.8% sodium citrate (Ratio blood: citrate =9:1).
Blood is centrifuged at 200 g (1500 r.p.m.) for 10 minutes at 5° C. and the platelet rich plasma (PRP) removed. The platelets are then kept at room temperature in a screw topped plastic centrifuge tube for the duration of the experiment.
A twin channel platelet aggregometer--(HU aggregometer, A. Browne Ltd, Leicester, UK) is used. 1.0 ml aliquots of PRP are prewarmed for 5-10 minutes and stirred continuously at 1100 rpm. Aggregation is induced by addition of 250μM arachidonic acid, (8μl volume) to the PRP samples. The aggregometer output is set at maximum and the chart recorder sensitivity is altered to give a full scale deflection to this arachidonic acid response.
Control responses are recorded as the maximum deflection obtained after addition of 250μM arachidonic acid.
PRP samples are preincubated for 1 minute with the test compounds followed by arachidonic acid addition. The maximum deflection after the addition of arachidonic acid is then recorded. All drugs are screened initially at 10^-4 M (final concentration), i.e. 10μl of a 1×10^-2 M stock solution of the drug dissolved in distilled water is added to the PRP.
Dazoxiben, a thromboxane synthetase inhibitor (Randall, M. J. et al Research 23 145-162, 1981)is used as a positive control and all test components are compared with Dazoxiben. The activity of the test compound is expressed as the ratio IC50 Dazaxiben/IC50 Test where IC50 is the dose required to inhibit the A.A. induced aggregation by 50%.

human platelet PLA2 = assay: Phospholipase A2 (PLA2) inhibition, hydrolysis of E.coli membrane phospholipids by human platelet PLA2; format: biochemical; settings: 100 μM
Procedure: Of particular interest for this activity are compounds of formula I wherein Ar represents an aryl radical having a 2-nitro substituent. […] PLA2 activity was assayed by a procedure based on Franson, R.C., Chapter 12. Intracellular Metabolism of Ingested Phospholipids. Liposomes: from Physical Structure to Therapeutic Applications. North-Holland Biomedical Press, 1981, pp 349-380 and involving measuring the hydrolysis of E.coli membrane phospholipids and the release of free [1-^14 ]oleic acid from the C-2 position of phospholipids by human platelet PLA2.

Row | Structure (SMILES) | IC50 (isolated rat portal vein) [µM] | IC50 (thromboxane synthetase) [µM] | BLOOD PRESSURE as % of pre-dose level ([1]; 0.003 mmol/kg po, 6 hrs) [%] | BLOOD PRESSURE as % of pre-dose level ([1]; 0.003 mmol/kg po, 24 hrs) [%] | BLOOD PRESSURE as % of pre-dose level ([1]; 0.003 mmol/kg po, t = 2 hrs) [%] | BLOOD PRESSURE as % of pre-dose level ([1]; 0.03 mmol/kg po, 6 hrs) [%] | BLOOD PRESSURE as % of pre-dose level ([1]; 0.03 mmol/kg po, 24 hrs) [%] | BLOOD PRESSURE as % of pre-dose level ([1]; 0.03 mmol/kg po, t = 2 hrs) [%] | BLOOD PRESSURE as % of pre-dose level ([1]; 0.15 mmol/kg po, 6 hrs) [%] | BLOOD PRESSURE as % of pre-dose level ([1]; 0.15 mmol/kg po, 24 hrs) [%] | BLOOD PRESSURE as % of pre-dose level ([1]; 0.15 mmol/kg po, t = 2 hrs) [%] | Inhibition of blood platelet aggregation potency ratio (dazoxiben = 1) [2] | inhibition of PLA2 activity (human platelet PLA2) [%]
1 | COC(=O)C1=C(C)NC(CCn2ccnc2)=C(C(=O)OC)C1c1ccccc1[N+](=O)[O-] (stereo not drawn) [Example 3, 1,4-Dihydro-2-[2-(1-imidazolyl)ethyl]-6-methyl-4-(2-nitrophenyl)pyridine-3,5-dicarboxylic acid dimethyl ester] | – | – | – | – | – | – | – | – | – | – | – | 1.64 | –
2 | CCOC(=O)C1=C(COc2cccnc2)NC(C)=C(C(=O)OC)C1c1cccc([N+](=O)[O-])c1 (stereo not drawn) [Example 4, 1,4-Dihydro-2methyl-4-(3-nitrophenyl)-6-[(3-pyridyloxy)methyl]pyridine-3,5-dicarboxylic acid 5-ethyl-3-methyl diester] | – | – | – | – | – | – | – | – | – | – | – | 1.1 | –

Second part, led by results:

Row | IC50 (isolated rat portal vein) [µM] | IC50 (thromboxane synthetase) [µM] | Structure (SMILES) | BLOOD PRESSURE as % of pre-dose level ([1]; 0.003 mmol/kg po, 6 hrs) [%] | BLOOD PRESSURE as % of pre-dose level ([1]; 0.003 mmol/kg po, 24 hrs) [%] | BLOOD PRESSURE as % of pre-dose level ([1]; 0.003 mmol/kg po, t = 2 hrs) [%] | BLOOD PRESSURE as % of pre-dose level ([1]; 0.03 mmol/kg po, 6 hrs) [%] | BLOOD PRESSURE as % of pre-dose level ([1]; 0.03 mmol/kg po, 24 hrs) [%] | BLOOD PRESSURE as % of pre-dose level ([1]; 0.03 mmol/kg po, t = 2 hrs) [%] | BLOOD PRESSURE as % of pre-dose level ([1]; 0.15 mmol/kg po, 6 hrs) [%] | BLOOD PRESSURE as % of pre-dose level ([1]; 0.15 mmol/kg po, 24 hrs) [%] | BLOOD PRESSURE as % of pre-dose level ([1]; 0.15 mmol/kg po, t = 2 hrs) [%] | Inhibition of blood platelet aggregation potency ratio (dazoxiben = 1) [2] | inhibition of PLA2 activity (human platelet PLA2) [%]
3 | 0.2 | 5 | CCOC(=O)C1=C(Cn2ccnc2)NC(C)=C(C(=O)OC)C1c1cccc([N+](=O)[O-])c1 (stereo not drawn) [Example 1, 1,4-Dihydro-2-(imidazol-1-ylmethyl)-6-methyl-4-(3-nitro-phenyl)pyridine-3,5-dicarboxylic acid 3-ethyl 5-methyl diester] | 70 | 83 | 65 | 62 | 105 | 48 | 46 | 85 | 42 | 1.2 | –
4 | – | 2.3 | CCOC(=O)C1=C(C)NC(CCn2ccnc2)=C(C(=O)OCC)C1c1ccccc1[N+](=O)[O-] (stereo not drawn) [Example 2, 1,4-Dihydro-2-[2-(imidazol-1-yl)-ethyl]-6-methyl-4-(2-nitrophenyl)pyridine-3,5-dicarboxylic acid diethyl ester] | – | – | – | 99 | 105 | 63 | 42 | 74 | 35 | 0.79 | 77
5 | – | 12.3 | COC(=O)C1=C(C)NC(CCn2cnc3ccccc32)=C(C(=O)OC)C1c1cccc(Cl)c1Cl (stereo not drawn) [Example 5, 2-[2-(1-Benzimidazolyl)ethyl]-4-[2,3-dichlorophenyl]-1,4-dihydro-6-methylpyridine-3,5-dicarboxylic acid dimethylester] | – | – | – | – | – | – | – | – | – | – | –
